Assay results published in the NIST ThermoML archive (doi:10.1016/j.jct.2006.08.002).
Several values for one entry are separate records, joined by “and”; a condition that tells them apart may be missing. Equal entries are not always repeated.

Assay: xn = mol fraction of the nth substance listed
Settings: Fluid (supercritical or subcritical phases), Constant-volume piezometry

CCO [ethanol] + O
Settings	mass density
524.15 K, 7270 kPa, x1 = 0.8	383.33 kg/m3
525.15 K, 7460 kPa, x1 = 0.8	383.31 kg/m3
526.15 K, 7550 kPa, x1 = 0.8	367.95 kg/m3
528.15 K, 7710 kPa, x1 = 0.8	312.86 kg/m3
528.15 K, 7870 kPa, x1 = 0.8	367.91 kg/m3
528.15 K, 8040 kPa, x1 = 0.8	383.24 kg/m3
528.15 K, 8410 kPa, x1 = 0.8	406.33 kg/m3
531.15 K, 8420 kPa, x1 = 0.8	367.86 kg/m3
533.15 K, 4750 kPa, x1 = 0.8	53.24 kg/m3
533.15 K, 7070 kPa, x1 = 0.5	84.52 kg/m3
533.15 K, 7100 kPa, x1 = 0.8	115.14 kg/m3
533.15 K, 8140 kPa, x1 = 0.8	188.77 kg/m3
533.15 K, 8270 kPa, x1 = 0.8	244.11 kg/m3 and 260.96 kg/m3
533.15 K, 8350 kPa, x1 = 0.8	284.34 kg/m3
533.15 K, 8420 kPa, x1 = 0.8	312.77 kg/m3
533.15 K, 8440 kPa, x1 = 0.8	307.44 kg/m3
533.15 K, 8750 kPa, x1 = 0.8	367.82 kg/m3
533.15 K, 8990 kPa, x1 = 0.8	383.14 kg/m3
533.15 K, 9460 kPa, x1 = 0.8	406.22 kg/m3
533.15 K, 10480 kPa, x1 = 0.8	440.21 kg/m3
533.15 K, 10860 kPa, x1 = 0.8	446.58 kg/m3
533.15 K, 17410 kPa, x1 = 0.8	516.16 kg/m3
538.15 K, 9170 kPa, x1 = 0.8	312.69 kg/m3
538.15 K, 27310 kPa, x1 = 0.8	553.51 kg/m3
543.15 K, 4920 kPa, x1 = 0.8	53.21 kg/m3
543.15 K, 7570 kPa, x1 = 0.5	84.48 kg/m3
543.15 K, 7610 kPa, x1 = 0.8	115.08 kg/m3
543.15 K, 9020 kPa, x1 = 0.8	188.68 kg/m3
543.15 K, 9530 kPa, x1 = 0.8	260.83 kg/m3
543.15 K, 9680 kPa, x1 = 0.8	284.19 kg/m3
543.15 K, 9920 kPa, x1 = 0.8	312.61 kg/m3
543.15 K, 10630 kPa, x1 = 0.8	367.62 kg/m3
543.15 K, 10940 kPa, x1 = 0.8	382.93 kg/m3
543.15 K, 11670 kPa, x1 = 0.8	406 kg/m3
548.15 K, 7850 kPa, x1 = 0.8	115.06 kg/m3
548.15 K, 9420 kPa, x1 = 0.8	188.63 kg/m3
548.15 K, 9680 kPa, x1 = 0.5	294.01 kg/m3
548.15 K, 9720 kPa, x1 = 0.5	327.56 kg/m3
548.15 K, 9980 kPa, x1 = 0.8	243.92 kg/m3
548.15 K, 10390 kPa, x1 = 0.5	421.66 kg/m3
548.15 K, 10630 kPa, x1 = 0.8	307.19 kg/m3
548.15 K, 10680 kPa, x1 = 0.8	312.53 kg/m3
548.15 K, 11790 kPa, x1 = 0.5	464.07 kg/m3
548.15 K, 11950 kPa, x1 = 0.8	382.83 kg/m3
548.15 K, 14420 kPa, x1 = 0.8	439.83 kg/m3
548.15 K, 14800 kPa, x1 = 0.8	446.2 kg/m3
548.15 K, 17240 kPa, x1 = 0.5	522.28 kg/m3
548.15 K, 26570 kPa, x1 = 0.5	568.89 kg/m3
548.15 K, 30490 kPa, x1 = 0.5	581.74 kg/m3
553.15 K, 5080 kPa, x1 = 0.8	53.19 kg/m3
553.15 K, 6130 kPa, x1 = 0.5	55.97 kg/m3
553.15 K, 7190 kPa, x1 = 0.5	69.28 kg/m3
553.15 K, 7970 kPa, x1 = 0.5	84.44 kg/m3
553.15 K, 9210 kPa, x1 = 0.5	117.47 kg/m3
553.15 K, 10090 kPa, x1 = 0.5	171.33 kg/m3
553.15 K, 10330 kPa, x1 = 0.5	234.67 kg/m3
553.15 K, 10520 kPa, x1 = 0.5	327.48 kg/m3
553.15 K, 10600 kPa, x1 = 0.5	293.93 kg/m3
553.15 K, 10890 kPa, x1 = 0.5	385.77 kg/m3
553.15 K, 11430 kPa, x1 = 0.8	312.45 kg/m3
553.15 K, 11790 kPa, x1 = 0.5	424.77 kg/m3
553.15 K, 11850 kPa, x1 = 0.5	419.86 kg/m3
553.15 K, 12540 kPa, x1 = 0.8	367.42 kg/m3
553.15 K, 13460 kPa, x1 = 0.5	463.93 kg/m3
553.15 K, 19450 kPa, x1 = 0.5	522.11 kg/m3
553.15 K, 25160 kPa, x1 = 0.8	515.53 kg/m3
